Results: US7407767B2, “Method of screening remedy for heart disease and medicinal composition for treating heart disease” (Ono Pharmaceutical Co., Ltd., priority 2003, dated 2008)

Test system: PD-1-deficient mouse serum
Assay: Competition with recombinant cardiac troponin I in western blotting of normal mouse heart extract
Assay type: binding
Details: recombinant cardiac troponin I added at 1, 10 and 100 μg/ml
Description: PD-1-deficient mouse serum (mouse #101, #104 and #117) was used for western blotting of normal mouse heart extract. For the competition assay, recombinant cardiac troponin I was added to immune blot solution at 1, 10, and 100 μg/ml. The 30-kDa antigen recognized by PD-1-deficient mouse serum was depleted by immunoprecipitation with antibodies to anti-myocardial troponin I and was recoverable from the pellet fraction (FIG. 2 (b)).
Thus, the band was confirmed to consist solely of cardiac troponin I.

recombinant cardiac troponin I: mouse cardiac troponin I protein obtained by PreScission protease cleavage of a GST-fusion recombinant protein
intensity of the 30-kDa band recognized by PD-1-deficient mouse serum: weakened in a dose-dependent manner
